Reference: patent US20250332178A1, “METHODS OF TREATING MYCOBACTERIAL INFECTIONS USING TETRACYCLINE COMPOUNDS” (priority 2018, published 2025)
Where two headings read alike, the source gives them in different places.

Experiments:
Assay in all cases: MIC (CLSI broth dilution), RGM isolates
Format in all cases: cell-based
M. mucogenium group = test system: M. mucogenium group
M. smegmatis group = details: Mycolicibacterium smegmatis
M. immunogenum group = test system: M. immunogenum group
M. fortuitum group = details: Mycolicibacterium fortuitum

Measured: MIC

CC[C@H]1OC(=O)[C@H](C)[C@@H](O[C@H]2C[C@@](C)(OC)[C@@H](O)[C@H](C)O2)[C@H](C)[C@@H](O[C@@H]2O[C@H](C)C[C@H](N(C)C)[C@H]2O)[C@](C)(OC)C[C@@H](C)C(=O)[C@H](C)[C@@H](O)[C@]1(C)O [clarithromycin]
0.25 µg/mL: M. mucogenium group; isolate 40, M. mucogenicum, initial reading, generally 3-4 days, read-out: MIC, CLA Initial | M. mucogenium group; isolate 43, M. phocaicum, initial reading, generally 3-4 days, read-out: MIC, CLA Initial | M. mucogenium group; isolate 44, M. phocaicum, initial reading, generally 3-4 days, read-out: MIC, CLA Initial | M. mucogenium group; isolate 45, M. phocaicum, initial reading, generally 3-4 days, read-out: MIC, CLA Initial | M. mucogenium group; isolate 47, M. phocaicum, initial reading, generally 3-4 days, read-out: MIC, CLA Initial | M. immunogenum group; isolate 35, M. immunogenum, initial reading, generally 3-4 days, read-out: MIC, CLA Initial
0.12 µg/mL: M. mucogenium group; 336 h, isolate 46, M. phocaicum, extended reading, up to/including 14 days, read-out: MIC, CLA Extended | M. mucogenium group; isolate 48, M. phocaicum, initial reading, generally 3-4 days, read-out: MIC, CLA Initial | M. immunogenum group; isolate 36, M. immunogenum, initial reading, generally 3-4 days, read-out: MIC, CLA Initial | M. fortuitum group; isolate 31, M. senegalense, initial reading, generally 3-4 days, read-out: MIC, CLA Initial | M. fortuitum group; isolate 32, M. senegalense, initial reading, generally 3-4 days, read-out: MIC, CLA Initial | M. fortuitum group; isolate 33, M. senegalense, initial reading, generally 3-4 days, read-out: MIC, CLA Initial
1 µg/mL: M. mucogenium group; 336 h, isolate 43, M. phocaicum, extended reading, up to/including 14 days, read-out: MIC, CLA Extended | M. mucogenium group; 336 h, isolate 44, M. phocaicum, extended reading, up to/including 14 days, read-out: MIC, CLA Extended | M. mucogenium group; 336 h, isolate 45, M. phocaicum, extended reading, up to/including 14 days, read-out: MIC, CLA Extended | M. immunogenum group; 336 h, isolate 35, M. immunogenum, extended reading, up to/including 14 days, read-out: MIC, CLA Extended | M. immunogenum group; isolate 37, M. immunogenum, initial reading, generally 3-4 days, read-out: MIC, CLA Initial | M. fortuitum group; 336 h, isolate 33, M. senegalense, extended reading, up to/including 14 days, read-out: MIC, CLA Extended | M. fortuitum group; 336 h, isolate 34, M. senegalense, extended reading, up to/including 14 days, read-out: MIC, CLA Extended | M. fortuitum group; isolate 23, M. fortuitum, initial reading, generally 3-4 days, read-out: MIC, CLA Initial | M. fortuitum group; isolate 30, M. porcinum/M. boenickei, initial reading, generally 3-4 days, read-out: MIC, CLA Initial
≤ 0.06 µg/mL: M. mucogenium group; isolate 39, M. mucogenicum, initial reading, generally 3-4 days, read-out: MIC, CLA Initial | M. mucogenium group; isolate 42, M. mucogenicum, initial reading, generally 3-4 days, read-out: MIC, CLA Initial | M. mucogenium group; isolate 46, M. phocaicum, initial reading, generally 3-4 days, read-out: MIC, CLA Initial | M. fortuitum group; isolate 34, M. senegalense, initial reading, generally 3-4 days, read-out: MIC, CLA Initial
8 µg/mL: M. fortuitum group; isolate 28, M. porcinum/M. boenickei, initial reading, generally 3-4 days, read-out: MIC, CLA Initial
4 µg/mL: M. fortuitum group; isolate 29, M. porcinum/M. boenickei, initial reading, generally 3-4 days, read-out: MIC, CLA Initial
> 32 µg/mL: M. smegmatis group; 144 h, isolate 49, M. goodii, extended reading (6 d), read-out: MIC, CLA Extended | M. smegmatis group; isolate 50, M. wolinskyi, initial reading, generally 3-4 days, read-out: MIC, CLA Initial | M. fortuitum group; 168 h, isolate 23, M. fortuitum, extended reading (7 d), read-out: MIC, CLA Extended | M. fortuitum group; 168 h, isolate 25, M. fortuitum, extended reading (7 d), read-out: MIC, CLA Extended | M. fortuitum group; 168 h, isolate 29, M. porcinum/M. boenickei, extended reading (7 d), read-out: MIC, CLA Extended | M. fortuitum group; 240 h, isolate 24, M. fortuitum, extended reading (10 d), read-out: MIC, CLA Extended | M. fortuitum group; 240 h, isolate 27, M. porcinum, extended reading (10 d), read-out: MIC, CLA Extended | M. fortuitum group; 240 h, isolate 28, M. porcinum/M. boenickei, extended reading (10 d), read-out: MIC, CLA Extended | M. fortuitum group; 336 h, isolate 26, M. porcinum, extended reading, up to/including 14 days, read-out: MIC, CLA Extended | M. fortuitum group; 336 h, isolate 30, M. porcinum/M. boenickei, extended reading, up to/including 14 days, read-out: MIC, CLA Extended
2 µg/mL: M. immunogenum group; 336 h, isolate 36, M. immunogenum, extended reading, up to/including 14 days, read-out: MIC, CLA Extended | M. immunogenum group; 336 h, isolate 37, M. immunogenum, extended reading, up to/including 14 days, read-out: MIC, CLA Extended | M. immunogenum group; 336 h, isolate 38, M. immunogenum, extended reading, up to/including 14 days, read-out: MIC, CLA Extended | M. fortuitum group; isolate 25, M. fortuitum, initial reading, generally 3-4 days, read-out: MIC, CLA Initial | M. fortuitum group; isolate 27, M. porcinum, initial reading, generally 3-4 days, read-out: MIC, CLA Initial
0.5 µg/mL: M. mucogenium group; 336 h, isolate 47, M. phocaicum, extended reading, up to/including 14 days, read-out: MIC, CLA Extended | M. mucogenium group; 336 h, isolate 48, M. phocaicum, extended reading, up to/including 14 days, read-out: MIC, CLA Extended | M. mucogenium group; isolate 41, M. mucogenicum, initial reading, generally 3-4 days, read-out: MIC, CLA Initial | M. immunogenum group; isolate 38, M. immunogenum, initial reading, generally 3-4 days, read-out: MIC, CLA Initial | M. fortuitum group; 336 h, isolate 31, M. senegalense, extended reading, up to/including 14 days, read-out: MIC, CLA Extended | M. fortuitum group; 336 h, isolate 32, M. senegalense, extended reading, up to/including 14 days, read-out: MIC, CLA Extended | M. fortuitum group; isolate 24, M. fortuitum, initial reading, generally 3-4 days, read-out: MIC, CLA Initial | M. fortuitum group; isolate 26, M. porcinum, initial reading, generally 3-4 days, read-out: MIC, CLA Initial
16 µg/mL: M. smegmatis group; isolate 49, M. goodii, initial reading, generally 3-4 days, read-out: MIC, CLA Initial
